# According to patent publication US12606528B2, “Methods and materials for inhibiting NF-kB activity” (University of Pittsburgh - Of the Commonwealth System of …, priority 2019, dated 2026):
# Read-outs that look alike come from different tables or passages of the source.
# Experiments:
# NF-κB = NF-κB assay: THP1-NF-κB-LUC cells, LPS-stimulated secreted luciferase; assay type: cell-based; conditions: THP1-NF-κB-LUC cells, read-out: IC50 (NF-κB assay)
# Method in brief: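 THP1-NF-κB-LUC cells (25k/well) were pretreated with compounds for 2 h, then stimulated with LPS (10 ng/mL) for 18 h. Secreted luciferase was measured and normalized to vehicle, and IC50 was fitted from the concentration series.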
# TNF release = assay: TNF assay: TNF release from LPS-stimulated human PBMCs (TNF ELISA); assay type: cell-based; conditions: PBMC, read-out: IC50 (TNF assay)
# Method in brief: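 Human PBMCs at 10k/well pretreated with compound dilutions 2 h, then stimulated with LPS (10 ng/mL) for 18 h. TNF in supernatants quantified by ELISA; IC50 for inhibition of TNF release fitted from concentration–response.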
# [1] = compounds 2 hours before LPS (10 ng/mL) for 18 hours, secreted luciferase
# [2] = human PBMCs, compounds 2 hours before LPS (10 ng/ml) for 18 hours, supernatant TNF ELISA
IC50 (NF-κB; [1]),IC50 (TNF release; [2]),IC50 (NF-κB; LPS-stimulated),"IC50 (TNF release; LPS-stimulated human PBMCs, TNF ELISA)",Compound
< 100 nM,1 to 10 µM,,,Cc1ccc(NS(=O)(=O)c2cc(Br)cc3c2OC(C)C(=O)N3C)cc1 (centres unmarked) [BC19906]
> 10000 nM,> 10 µM,,,CC1Oc2cc(S(=O)(=O)Nc3ccc(F)cc3Cl)c(Br)cc2N(C)C1=O (centres unmarked) [BC19907]
< 100 nM,> 10 µM,,,CC1Oc2c(cc(Br)cc2S(=O)(=O)Nc2ccc(F)cc2Cl)N(C)C1=O (centres unmarked) [BC19908]
> 10000 nM,> 10 µM,,,COc1ccc(NS(=O)(=O)c2cc(Br)cc3c2OC(C)C(=O)N3C)cc1Cl (centres unmarked) [BC19909]
1000 to 10000 nM,> 10 µM,,,CC1Oc2cc(S(=O)(=O)Nc3ccc(F)cc3)c(Br)cc2N(C)C1=O (centres unmarked) [BC19910]
< 100 nM,> 10 µM,,,CC1Oc2c(cc(Br)cc2S(=O)(=O)Nc2ccc(F)cc2)N(C)C1=O (centres unmarked) [BC19911]
> 10000 nM,> 10 µM,,,Cc1ccc(NS(=O)(=O)c2cc3c(cc2Br)N(C)C(=O)C(C)O3)cc1 (centres unmarked) [BC19912]
< 100 nM,> 10 µM,,,CCC1Oc2c(cc(Br)cc2S(=O)(=O)Nc2ccc(F)cc2F)N(C)C1=O (centres unmarked) [BC19913]
100 to 1000 nM,> 10 µM,,,CCC1Oc2cc(S(=O)(=O)Nc3ccc(F)cc3F)c(Br)cc2N(C)C1=O (centres unmarked) [BC19914]
< 100 nM,> 10 µM,,,CCc1cccc(NS(=O)(=O)c2cc(Br)cc3c2OC(CC)C(=O)N3C)c1 (centres unmarked) [BC19915]
1000 to 10000 nM,> 10 µM,,,CCc1cccc(NS(=O)(=O)c2cc3c(cc2Br)N(C)C(=O)C(CC)O3)c1 (centres unmarked) [BC19916]
,,> 10000 nM,> 10 µM,O=C(O)c1cc2c(c(NS(=O)(=O)c3ccc(F)c(F)c3)c1)N1CCCC1C(=O)N2 (centres unmarked) [BC19917]
> 10000 nM,> 10 µM,,,COc1ccc(NS(=O)(=O)c2cc3c(cc2Br)N(C)C(=O)C(C)O3)cc1Cl (centres unmarked) [BC19919]
100 to 1000 nM,> 10 µM,,,CC1Oc2cc(S(=O)(=O)Nc3ccc(C#N)cc3)c(Br)cc2N(C)C1=O (centres unmarked) [BC19920]
< 100 nM,1 to 10 µM,,,CCC1Oc2c(cc(Br)cc2S(=O)(=O)Nc2ccc(OC(F)(F)F)cc2)N(C)C1=O (centres unmarked) [BC19921]
< 100 nM,> 10 µM,,,CCC1Oc2cc(S(=O)(=O)Nc3ccc(OC(F)(F)F)cc3)c(Br)cc2N(C)C1=O (centres unmarked) [BC19922]
< 100 nM,1 to 10 µM,,,CCC1Oc2c(cc(Br)cc2S(=O)(=O)Nc2ccc(C)c(F)c2)N(C)C1=O (centres unmarked) [BC19923]

IC50 (NF-κB; [1]),IC50 (TNF release; [2]),IC50 (NF-κB; LPS-stimulated),"IC50 (TNF release; LPS-stimulated human PBMCs, TNF ELISA)",Compound
< 100 nM,1 to 10 µM,,,CCC1Oc2cc(S(=O)(=O)Nc3ccc(C)c(F)c3)c(Br)cc2N(C)C1=O (centres unmarked) [BC19924]
< 100 nM,1 to 10 µM,,,CCC1Oc2c(cc(Br)cc2S(=O)(=O)Nc2ccc(F)c(F)c2)N(C)C1=O (centres unmarked) [BC19925]
< 100 nM,> 10 µM,,,CCC1Oc2cc(S(=O)(=O)Nc3ccc(F)c(F)c3)c(Br)cc2N(C)C1=O (centres unmarked) [BC19926]
< 100 nM,1 to 10 µM,,,CCC1Oc2c(cc(Br)cc2S(=O)(=O)Nc2ccccc2)N(C)C1=O (centres unmarked) [BC19927]
100 to 1000 nM,1 to 10 µM,,,CCC1Oc2cc(S(=O)(=O)Nc3ccccc3)c(Br)cc2N(C)C1=O (centres unmarked) [BC19928]
< 100 nM,1 to 10 µM,,,CCC1Oc2c(cc(Br)cc2S(=O)(=O)Nc2ccc(Cl)cc2)N(C)C1=O (centres unmarked) [BC19929]
100 to 1000 nM,> 10 µM,,,CCC1Oc2cc(S(=O)(=O)Nc3ccc(Cl)cc3)c(Br)cc2N(C)C1=O (centres unmarked) [BC19930]
< 100 nM,1 to 10 µM,,,CCc1ccc(NS(=O)(=O)c2cc(Br)cc3c2OC(CC)C(=O)N3C)cc1 (centres unmarked) [BC19931]
< 100 nM,1 to 10 µM,,,CCc1ccc(NS(=O)(=O)c2cc3c(cc2Br)N(C)C(=O)C(CC)O3)cc1 (centres unmarked) [BC19932]
< 100 nM,1 to 10 µM,,,CCC1Oc2c(cc(Br)cc2S(=O)(=O)Nc2ccc(C(C)C)cc2)N(C)C1=O (centres unmarked) [BC19933]
100 to 1000 nM,1 to 10 µM,,,CCC1Oc2cc(S(=O)(=O)Nc3ccc(C(C)C)cc3)c(Br)cc2N(C)C1=O (centres unmarked) [BC19934]
< 100 nM,1 to 10 µM,,,CCC1Oc2c(cc(Br)cc2S(=O)(=O)Nc2ccc(OC)cc2)N(C)C1=O (centres unmarked) [BC19935]
< 100 nM,> 10 µM,,,CCC1Oc2cc(S(=O)(=O)Nc3ccc(OC)cc3)c(Br)cc2N(C)C1=O (centres unmarked) [BC19936]
< 100 nM,1 to 10 µM,,,CCC1Oc2c(cc(Br)cc2S(=O)(=O)Nc2ccc(C)c(Cl)c2)N(C)C1=O (centres unmarked) [BC19937]
100 to 1000 nM,1 to 10 µM,,,CCC1Oc2cc(S(=O)(=O)Nc3ccc(C)c(Cl)c3)c(Br)cc2N(C)C1=O (centres unmarked) [BC19938]
1000 to 10000 nM,> 10 µM,,,COc1ccc2[nH]cc(S(=O)(=O)c3ccc(F)c(F)c3)c(=O)c2n1 [BC 19203]
> 10000 nM,> 10 µM,,,O=S(=O)(c1ccc(Br)cc1)c1cnccc1O [BC 19460]
